{"source": "patent US20110190265A1", "about": "“METHODS AND COMPOSITIONS FOR TREATING BACTERIAL INFECTIONS BY INHIBITING QUORUM SENSING” (priority 2008, published 2011)", "key": {"[1]": {"tested_on": "autoinducer production by V. cholerae N16961", "test": "microbe, parasite or virus in culture", "conditions": "Vibrio cholerae, read-out: AI Inhibition IC50, BB170 (ai1−ai2+)"}, "[2]": {"molecular_target": "MTAN activity in V. cholerae N16961 cells (Vibrio cholerae serotype O1, UniProt Q9KPI8)"}, "human MTAP": {"molecular_target": "human MTAP (Homo sapiens, UniProt Q13126)", "sequence (Q13126 whole entry)": "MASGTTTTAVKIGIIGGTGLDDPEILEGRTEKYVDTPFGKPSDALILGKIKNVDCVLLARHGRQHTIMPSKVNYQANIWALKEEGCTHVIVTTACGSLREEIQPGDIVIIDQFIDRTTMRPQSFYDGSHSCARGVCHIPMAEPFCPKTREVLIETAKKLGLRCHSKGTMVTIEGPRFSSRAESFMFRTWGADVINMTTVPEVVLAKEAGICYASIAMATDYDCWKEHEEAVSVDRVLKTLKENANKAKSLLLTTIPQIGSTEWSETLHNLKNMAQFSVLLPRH", "conditions": "read-out: affinity for purified human MTAP; cited from earlier work"}, "VcMTAN": {"molecular_target": "T1, VcMTAN (Vibrio cholerae serotype O1, UniProt Q9KPI8)", "T1 construct": "residues 1-230 for each monomer of VcMTAN in the asymmetric unit; The largest part of the N-terminal 6-His tag and the last C-terminal residue, 231; made in house; host or cells: E. coli BL21 Star (pBAD-DEST49)", "T1 sequence (Q9KPI8 1-231)": "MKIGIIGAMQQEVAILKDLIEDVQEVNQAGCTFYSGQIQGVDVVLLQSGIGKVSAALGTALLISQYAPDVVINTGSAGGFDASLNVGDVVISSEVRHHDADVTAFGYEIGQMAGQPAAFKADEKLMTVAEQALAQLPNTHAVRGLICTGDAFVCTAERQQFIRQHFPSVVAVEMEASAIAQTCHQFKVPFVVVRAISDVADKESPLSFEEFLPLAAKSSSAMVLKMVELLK", "test": "Inhibition of purified MTAN activity (xanthine oxidase-coupled assay)", "assay_type": "biochemical", "conditions": "ratio of dissociation constants of the inhibitor pair", "description": "Inhibition of purified MTAN activity. […] Reactions were monitored for 2 hours at 25° C. on a Cary 300 Bio UV-Vis spectrophotometer. Inhibition constants were obtained by fitting the data to the following expression for competitive inhibition using KaleidaGraph 3.6 (Synergy Software, Reading, Pa.):\nwhere νs′ and νs are steady state rates in the presence, and absence of inhibitor, respectively; Km is the Michaelis constant for substrate MTA which was obtained as described above; [S] and [I] are the concentrations of MTA and inhibitor, respectively. If the concentration of inhibitor is smaller than 10-fold concentration of enzymes, the following correction was then applied:"}, "EcMTAN": {"molecular_target": "EcMTAN (Escherichia coli, UniProt P0AF12)", "sequence (P0AF12 whole entry)": "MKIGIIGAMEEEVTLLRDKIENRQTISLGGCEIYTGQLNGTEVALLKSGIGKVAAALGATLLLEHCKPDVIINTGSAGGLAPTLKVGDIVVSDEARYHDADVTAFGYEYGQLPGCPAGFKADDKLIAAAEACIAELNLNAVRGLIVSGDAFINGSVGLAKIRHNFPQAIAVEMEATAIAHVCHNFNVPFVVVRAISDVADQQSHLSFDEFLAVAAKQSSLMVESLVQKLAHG", "conditions": "purified EcMTAN; cited from earlier work"}}}
{"smiles": "CCCCSCC1CN(Cc2c[nH]c3c(N)ncnc23)CC1O", "note": "(stereo not shown) [BuT-DADMe-ImmA, 5′-butylthio-(BuT-)DADMe-ImmucillinA]", "values": [{"measurement": "IC50", "setting": "[1]", "result": 1.4, "unit": "nM"}]}
{"smiles": "CCSCC1CN(Cc2c[nH]c3c(N)ncnc23)CC1O", "note": "(stereo not shown) [EtT-DADMe-ImmA, 5′-ethylthio-(EtT-) DADMe-ImmucillinA]", "values": [{"measurement": "IC50", "setting": "[1]", "result": 11, "unit": "nM"}]}
{"smiles": "CSCC1CN(Cc2c[nH]c3c(N)ncnc23)CC1O", "note": "(stereo not shown) [MT-DADMe-ImmA, 5′-methylthio-(MT-) DADMe-ImmucillinA]", "values": [{"measurement": "increase of cellular IC50 above Ki* (diffusion barrier)", "setting": "[2]", "result": "~500", "unit": "fold"}, {"measurement": "Kd", "setting": "human MTAP", "result": 0.086, "unit": "nM"}, {"measurement": "IC50", "setting": "[1]", "result": 0.94, "unit": "nM"}]}
{"smiles": "CSC[C@H]1N[C@@H](c2c[nH]c3c(N)ncnc23)[C@H](O)[C@@H]1O", "note": "[MT-ImmA, 5′-methylthio-ImmucillinA]", "values": [{"measurement": "KImmA/KDADMe-ImmA", "setting": "VcMTAN", "result": 135}]}
{"smiles": "Nc1ncnc2c(CN3CC(O)C(CSc4ccc(Cl)cc4)C3)c[nH]c12", "note": "(stereo not shown) [para-chloro-phenylthio-DADMe-ImmA]", "values": [{"measurement": "Km/Ki", "setting": "EcMTAN", "result": "~10^8"}]}
